# Measurements published in patent publication US20040072171A1, “Method for identifying compounds for modulating the activity of a tumor suppressor protein” (priority 2000, published 2004).
# What was measured:
# RT4-D6P2T cells = assay: Growth in culture vessels of merlin-inducible schwannoma clone 54; assay type: cell-based, rat; settings: for merlin-dependent growth inhibition in confluent cell cultures: merlin expression induced by doxycyclin
# Procedure: Growth in culture vessels: To determine the growth curves, each well of a 24-well plate was seeded with 5×10^3 cells (in FIG. 7: 2.5×10^3), and determinations in triplicate were carried out every 24 hours (days). Definition of the growth conditions:
# 1. Low cell density (=logarithmic or exponential growth) means a cell density of 500 cells per cm^2 24 hours after seeding.
# 2. high cell density (=confluent growth condition) is defined as a cell density of 5×10^3 cells per cm^2 24 hours after seeding.
# A. The soluble extracellular domain of CD44 sequestrates different ligands of exponentially growing and confluent cells. In each case 3 wells of a 24-well plate were seeded in triplicate with cells of clone 54, and the cells were treated with doxycyclin in order to induce the expression of merlin. On day 1 (logarithmically growing cells) and on day 3 (confluent cells), 10 ng/ml of soluble extracellular CD44 domain, either of the wild type (solCD44 or solCD44wt) or of the glycosaminoglycan-binding mutant (solCD44mut), were added. As the control, cells were treated in the same manner without doxycylin (since the addition of solCD44 was ineffective, only one group of data is shown).
# B. Hyaluronate delays growth. In each case 3 wells of a 24-well plate were seeded in triplicate with cells of clone 54. Doxycyclin and hyaluronate (100 μg/ml) were added as stated.
# merlin = assay: Immune blot for dephosphorylation of merlin in clone 54 lysates; assay type: cell-based, rat; settings: exponentially growing clone 54 cells, 8 hours doxycyclin
# Procedure: For the immunoprecipitation of merlin, the cells were grown to confluence in 10 cm dishes, washed once with ice-cold PBS and then placed on ice and lysed with 1 ml lysis buffer per plate (50 mM Tris pH 7.4, 150 mM NaCl, 3 mM MgCl2, 0.5% NP-40, 1 mM PMSF, 10 μg/aprotinin ml, 10 μg/ml leupeptin). The DNA was sheared using a gauge 26 needle. The lysate was clarified by centrifugation, and the supernatant was incubated with 5 μg/ml merlin antibody at 4° C. overnight with gentle rotation. The reaction was subsequently treated with 30 μl of protein A agarose (dianova) and left to rotate for a further 3 hours at 4° C. The immune complexes were washed 4 times with cold lysis buffer and separated in 50 μl 2×Laemmli sample buffer. The protein was dissolved in a 10% SDS-PAGE, and immunoblots were generated with a merlin-specific antibody. For the treatment with calf intestine phosphatase (CIP), the lysate was incubated for 1 hour at 30° C. with 1 unit CIP prior to the immunoprecipitation. The coimmunoprecipitation of merlin and CD44 was carried out analogously, except that a different lysis buffer was used (20 mM Tris pH 7.4, 50 mM NaCl, 3 mM MgCl2, 0.5% NP40). The lysates were preincubated for 2 hours with protein A/G-agarose (Dianova) to remove unspecifically binding components, whereupon 5 μg/ml CD44 antibody 5G8 was added and the reaction was allowed to rotate overnight. […]
# Erk = assay: PDGF-dependent phosphorylation of Erk; assay type: cell-based, rat; settings: clone 54, serum starvation, doxycyclin 8 hours, PDGF 5 ng/ml 5 minutes
# Procedure: The cells were used to seed 6-well plates at Low density and 24-well plates at high density, with or without 0.8% methylcellulose. The cells remained free from serum for 24 hours and were treated with doxycyclin or left untreated for the last 8 hours. Then, the cells were stimulated for 5 minutes with 5 ng/ml PDGF and subsequently harvested in 2×Laemmli sample buffer, and the cell extracts were separated on a 10% SDS polyacrylamide gel. After the proteins had been transferred to the membrane, immunoblots were prepared with a phospho-Erk-specific antibody, and the bound antibody was detected. As a control for uniform loading of the separating gel with Erk, the membrane was stripped (freed from antibody) and anti-Erk-blotted.
# C. […] Cells of clone 54 were plated at high or low cell density, left to grow for 24 hours with serum starvation and treated during the last 8 hours with doxycyclin (+) or left untreated (−). Where stated, the cells were treated for 2 hours with hyaluronidase (HAase, 5 U/μl), for 10 minutes with solCD44wt and/or for 5 minutes with PDGF (5ng/ml). The proteins of the lysates were separated by means of SDS-PAGE, and immune blots were carried out with phospho-Erk and Erk-specific antibodies. Clone 63 gave the same results as all the experiments in FIG. 6.
# C. […] Cells were grown at low cell density and subsequently treated with doxycyclin with serum starvation cells as shown in FIG. 6C and assayed for the PDGF-dependent phosphorylation of Erk. Where stated, HA (100 μg/ml) was present for 10 minutes and PDGF (5 ng/ml) was present for 5 minutes. Experiments A to C were also carried out with clone 63, and similar results were obtained.
# p27^Kip1 = assay: Induction of p27Kip1 in NIH3T3 cells (immune blot); assay type: cell-based, murine; settings: for level of cell division cycle inhibitor p27^Kip1: 30 minutes, hyaluronan 100 μg/ml or solCD44s 10 ng/ml
# Procedure: B. Induction of p27^Kip1 by treatment with hyaluronan. […] The next day, they were treated either with 100 μg/ml of hyaluronan or with 10 ng/ml solCD44s, and the plates were incubated for 30 minutes. The cells were harvested in 2×Laemmli sample buffer, and an immune blot with a polyclonal, p27^Kip1-specific antibody from rabbit was carried out (C-19, Santa Cruz). A polyclonal actin-antibody from goat (I-19, Santa Cruz) was used as loading control.
# MEK = settings: merlin-inducible schwannoma cells, inhibitor for 2 or 12 hours
# Procedure: Merlin-inducible schwannoma cells were plated onto 6-well plates at a density of 1.5×10^4 cells per well. 1 μg/ml doxycyclin was added where stated. After 16 hours, an MEK activation inhibitor (UO126; Promega) was added for 2 or 12 hours. 0 means no addition of inhibitor. The cells were harvested and solubilized in 2×Laemmli buffer, and the proteins were separated on a 10% SDS polyacrylamide gel. The proteins were transferred to a membrane, and an immune blot was carried out either with the polyclonal p27^Kip1 antibody C-19 from rabbit or with the Rb-specific antibody C-15 (Santa Cruz). The actin-specific antibody I-19 was used as loading control.
# NIH3T3 cells = assay: Growth rate of NIH3T3 cells; assay type: cell-based, murine; settings: 100 μg/ml, cell counts on the following 3 days
# Procedure: A. Growth rate of NIH3T3 cells after addition of hyaluronan. 24-well plates were seeded in triplicate with NIH3T3 cells at a density of 0.5×10^4 cells. Where stated, the culture medium was treated the next day with 100 μg/ml hyaluranon (Healon). The cell counts were determined on each of the following 3 days.
Compound,merlin-dependent growth inhibition in confluent cell cultures (RT4-D6P2T cells),"effect on growth of cells without doxycyclin (RT4-D6P2T cells; control cells without doxycyclin, 10 ng/ml)","growth of cultures in the logarithmic growth phase (RT4-D6P2T cells; logarithmically growing cells, merlin induced by doxycyclin, soluble CD44 10 ng/ml)",phosphorylation state of merlin (merlin),PDGF-dependent phosphorylation of Erk / activation of merlin (Erk),level of cell division cycle inhibitor p27^Kip1 (p27^Kip1),hypophosphorylated Rb (MEK),level of p27^Kip1 (MEK),"growth of clone 54 cells (RT4-D6P2T cells; hyaluronate 100 μg/ml, with doxycyclin)",growth rate of NIH3T3 cells (NIH3T3 cells),induction of p21 and p27 (p27^Kip1; hyaluronate-induced activation of merlin)
solCD44wt: soluble extracellular CD44 domain of the wild type,growth inhibition is nullified,ineffective,growth inhibition is observed,Induced dephosphorylation of merlin,nullifies blocking of the activation of merlin,increased,–,–,–,–,–
N#CC(=C(/N)Sc1ccccc1N)/C(C#N)=C(/N)Sc1ccccc1N [UO126],–,–,–,–,–,–,increase,higher level,–,–,–
hyaluronidase,prevents the inhibition of growth,–,–,–,destroys the ligand responsible for the activation of merlin,–,–,–,–,–,–
hyaluronate,–,–,–,Induced dephosphorylation of merlin,blocks the PDGF-dependent phosphorylation of Erk,increased,–,–,delays growth,reduced their growth rate,induction of p21 and p27
